Common to all, as to assay: NCI tumour cell line growth inhibition, 48 h
For assay [1], the system named is SR leukemia.
Assay [2] deals with SNB-19 CNS.
Assay [3] deals with 786-0 renal.
The test system of assay [4] is EKVX NSCLC.
In assay [5] the test system is KM12 colon.
For assay [6], the system named is NCI-H460 lung.
Assay [7] has as its system SF-539 CNS.
Assay [8] deals with NCI-H226 lung.
Assay [9] has as its system UACC-62 melanoma.
Assay [10] has as its system SNB-75 CNS.

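Values below derive from 48-hour exposures of cells grown in 96-well plates, with endpoints linearly interpolated between the two concentrations bracketing the appropriate inhibition level. Here, GI50 denotes the concentration required for 50% inhibition of growth. TGI denotes the concentration required for complete inhibition of growth.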

Turning to `Cc1cc(O)cc(-c2nn(C)cc2-c2cc(N3CCOCC3)nc(-c3cccnc3)n2)c1`, the GI50 in assay [1] was 1.22 µM; in [2] it was 4.84 µM; in [3], 2.52 µM; in [4], 10.5 µM; in [5], 3.23 µM; in [6] it was 3.28 µM. Further, the GI50 in assay [7] is 1.88 µM; in assay [8], 4.83 µM; in assay [9], 1.9 µM; in assay [10] it was 1.48 µM. Moreover, the TGI in assay [1] was more than 100 µM; in [2], more than 100 µM; in [3], 11.6 µM; in assay [4], more than 100 µM; in [5], 20.7 µM; in assay [6], more than 100 µM. Further, the TGI in assay [7] is 4.8 µM; in [8], 20.5 µM; in assay [9], 18.7 µM; in assay [10] it was 4.49 µM.

For `CN1CCN(c2ccc(NC(=O)c3cncnc3Nc3ccc4c(ccn4Cc4cccc(F)c4)c3)cc2)CC1`, the GI50 is 0.655 µM in assay [1]; 4.42 µM in [2]; 0.66 µM in [3]; 4.78 µM in [4]; 2.33 µM in assay [5]; 1.35 µM in assay [6]. The GI50 in [7] was 1.35 µM; in assay [8], 4.86 µM; in assay [9], 4.06 µM; in assay [10], 4.27 µM. For the same molecule, the TGI in [1] turned out to be 1.96 µM; in [2], 8.96 µM; in assay [3] it was 1.37 µM; in [4], 9.37 µM; in [5], 6.76 µM; in assay [6], 4.99 µM. In addition, the TGI in assay [7] came out at 5.54 µM; in [8] it was 11.6 µM; in assay [9] it was 8.25 µM; in assay [10], 8.51 µM.

Consider `CCN(CC)CCC(CNc1c(C)cnc2cc(Cl)ccc12)c1ccc(Cl)c(Cl)c1` (centres undefined), for which the GI50 in assay [1] is 1.93 µM; in assay [2], 4.79 µM; in [3] it was 2.37 µM; in assay [4] it was 3.21 µM; in [5] it was 4.34 µM; in assay [6] it was 2.63 µM. The GI50 in [7] is 1.77 µM; in assay [8], 13.5 µM; in assay [9], 2.18 µM; in assay [10], 3.9 µM. Besides, the TGI in [1] stood at 5.44 µM; in assay [2], 18 µM; in assay [3], 5.74 µM; in assay [4], 14.2 µM; in [5], 17.7 µM; in assay [6] it was 10.7 µM. For the same molecule, the TGI in assay [7] was determined as 3.52 µM; in assay [8], 30.8 µM; in assay [9] it was 4.77 µM; in assay [10], 18.7 µM.

Consider `CCOC(=O)C1=C(Nc2cccc3ccccc23)OCC1=O`, for which the TGI in assay [1], in assay [2], in [3], in [4], in assay [5] and in [6] was more than 100 µM in each case. The TGI in assay [7], in [8], in assay [9] and in [10] was more than 100 µM in each case.

For the molecule `COc1ccccc1N1CCN(CC(O)Cn2c(=O)c3c(OC)nc(C)cc3c(=O)n2-c2ccccc2)CC1` (centres undefined), the GI50 is more than 100 µM in assay [1]; 25.5 µM in assay [2]; 24.3 µM in assay [3]; 66.1 µM in assay [4]; more than 100 µM in assay [5]; more than 100 µM in assay [6]. In addition, the GI50 in assay [7] was 32.6 µM; in [8], more than 100 µM; in assay [9], 64.9 µM; in [10], 14.8 µM. Moreover, the TGI in assay [1] was more than 100 µM; in assay [2] it was more than 100 µM; in assay [3] it was 76.9 µM; in [4] it was more than 100 µM; in assay [5] it was more than 100 µM; in [6], more than 100 µM. The TGI was more than 100 µM in [7], more than 100 µM in [8], more than 100 µM in assay [9] and 37.6 µM in assay [10].

On to `COC(=O)[C@]12CC[C@@H](C)[C@H](C)[C@@H]1C1=CC[C@@H]3[C@@]4(C)C(C=O)=C[C@@](C)(COC(=O)c5ccco5)C4=CC[C@@]3(C)[C@]1(C)CC2`, for which the GI50 in [1] is 2.12 µM; in assay [2] it was 5.12 µM; in assay [3] it was 2.97 µM; in assay [4] it was 2.74 µM; in assay [5], 3.27 µM; in [6] it was 2.66 µM. Also, the GI50 was 2.57 µM in assay [7], 2.33 µM in assay [8], 0.0831 µM in assay [9] and 2.47 µM in assay [10]. Moreover, the TGI in assay [1] was 6.66 µM; in [2], more than 100 µM; in [3], 9.17 µM; in assay [4], 9.17 µM; in assay [5] it was 19.9 µM; in assay [6], 7.61 µM. In addition, the TGI in assay [7] was 6.94 µM; in assay [8] it was 7.79 µM; in assay [9], 2.24 µM; in [10], 25.5 µM.

On to `Fc1cccc(-c2nc(-c3c[nH]c4ncccc34)cs2)c1`, for which the GI50 in assay [1] is more than 100 µM; in assay [2], 22.6 µM; in assay [3] it was more than 100 µM; in assay [4], 2.46 µM; in assay [5] it was more than 100 µM; in assay [6], 6.59 µM. The GI50 in [7] is 70 µM; in [8] it was more than 100 µM; in assay [9], more than 100 µM; in assay [10], 8.34 µM. The TGI in [1], in [2], in [3], in assay [4], in [5] and in [6] was more than 100 µM in each case. Moreover, the TGI in assay [7] is more than 100 µM; in assay [8] it was more than 100 µM; in assay [9] it was more than 100 µM; in assay [10] it was 42.8 µM.

Regarding `CC(NNC(=S)N1CCN(c2ccccn2)CC1)c1cccc[n+]1[O-]` (centres undefined), the TGI is 96.1 µM in assay [1]; more than 100 µM in assay [2]; more than 100 µM in assay [3]; more than 100 µM in assay [4]; more than 100 µM in assay [5]; more than 100 µM in [6]. The TGI was 84.2 µM in [7], more than 100 µM in assay [8], 22.8 µM in assay [9] and more than 100 µM in assay [10].

In the case of `NC1=C(/C(N)=N/O)C(c2ccccc2)c2ccc3ccccc3c2O1` (centres undefined), the GI50 in assay [1] was 0.239 µM; in assay [2], 0.471 µM; in [3] it was 0.513 µM; in [4], 1.01 µM; in assay [5], 0.302 µM; in [6], 0.341 µM. Besides, the GI50 in assay [7] is 0.242 µM; in assay [8] it was 8.01 µM; in assay [9], 0.112 µM; in assay [10] it was 0.108 µM. Moreover, the TGI was more than 100 µM in assay [1]; more than 100 µM in [2]; more than 58 µM in assay [3]; more than 100 µM in assay [4]; 36.4 µM in assay [5]; 16.1 µM in assay [6]. Moreover, the TGI in assay [7] was found to be 0.885 µM; in [8], 77.1 µM; in assay [9], 15.2 µM.

As to `NC(=S)N/N=C1/C(=O)N(c2ccccc2)C(=O)C1C(=O)Nc1ccccc1` (centres undefined), the TGI in assay [1], in [2], in assay [3], in assay [4], in assay [5] and in assay [6] was more than 100 µM throughout. Further, the TGI in [7], in [8], in [9] and in assay [10] was more than 100 µM each time.

With `CC(=O)Nc1ccc(S(=O)(=O)N/N=C(\C)CN2C(=O)c3ccccc3C2=O)cc1`, the TGI in [1], in assay [2], in assay [3], in assay [4], in [5] and in assay [6] was more than 100 µM each time. Moreover, the TGI in [7], in assay [8], in [9] and in assay [10] was more than 100 µM each time.

Regarding `CSc1ccc(NC(=O)CCl)cc1`, the TGI in [1], in assay [2], in [3], in assay [4], in [5] and in assay [6] was more than 10 µM in each case. Moreover, the TGI in assay [7] is more than 10 µM; in assay [8] it was more than 10 µM; in assay [9], 3.65 µM; in assay [10], 6.23 µM.

Take `CCN1Cc2c(/C=C/c3ccccc3)nc3ccc(OC)cc3c2N(c2cccc(Cl)c2)C1`: the GI50 in assay [1] is 1.71 µM; in assay [2] it was 2.13 µM; in assay [3], 3.17 µM; in [4], 1.79 µM; in assay [5], 1.81 µM; in assay [6] it was 1.64 µM. In addition, the GI50 in [7] was 1.98 µM; in assay [8] it was 1.65 µM; in [9], 1.49 µM; in assay [10], 1.8 µM. Besides, the TGI in assay [1] amounted to 5.53 µM; in [2], 5.15 µM; in assay [3] it was 8.83 µM; in assay [4], 3.9 µM; in [5], 3.49 µM; in [6], 3.27 µM. For the same molecule, the TGI was 3.91 µM in assay [7], 3.5 µM in [8], 3.06 µM in assay [9] and 6.1 µM in assay [10].

For the molecule `COc1cc(-c2cn(-c3ccc(F)cc3)c(=O)[nH]2)cc(OC)c1OC`, the GI50 in assay [1], in [2], in assay [3], in assay [4], in assay [5] and in assay [6] was more than 100 µM each time. The GI50 in [7] was more than 100 µM; in [8], more than 100 µM; in assay [9], more than 100 µM; in assay [10], 55.6 µM. Besides, the TGI in [1], in [2], in [3], in assay [4], in assay [5] and in assay [6] was more than 100 µM throughout. The TGI in assay [7], in assay [8], in assay [9] and in assay [10] was more than 100 µM in each case.

For `Cn1c(=O)c2[nH]c(CCS)nc2n(C)c1=O`, the TGI in assay [1], in [2], in assay [3], in [4], in assay [5] and in [6] was more than 100 µM throughout. In addition, the TGI is more than 100 µM in assay [7], more than 100 µM in assay [8], more than 100 µM in assay [9] and 67.7 µM in [10].

As to `CC(C)=CC1(C)/C(=N\O)C(C)(CC(C)C)C(=O)N1O` (centres undefined), the TGI in [1], in [2], in assay [3], in assay [4], in [5] and in assay [6] was more than 100 µM in each case. In addition, the TGI in assay [7], in [8], in assay [9] and in assay [10] was more than 100 µM each time.

As to `CC(C)(C)c1cc(C#N)c2c(c1)C(=O)OC2(c1ccccc1)c1ccccc1C#N` (centres undefined), the TGI in assay [1], in assay [2], in [3], in assay [4], in assay [5] and in assay [6] was more than 100 µM throughout. The TGI in [7], in assay [8], in [9] and in [10] was more than 100 µM each time.

On to `COc1cc(NC(=O)c2cc3ccccc3cc2O)c(OC)cc1Cl`, for which the GI50 in [1] was 2.02 µM; in assay [2], 2.53 µM; in assay [3], 2.86 µM; in [4], 1.29 µM; in assay [5], 2.52 µM; in assay [6], 1.9 µM. The GI50 in [7] was 2.31 µM; in [8] it was 1.45 µM; in assay [9], 1.35 µM; in assay [10], 1.44 µM. For the same molecule, the TGI in assay [1] was determined as 14.7 µM; in [2], 8.21 µM; in [3], 9.18 µM; in [4], 5.01 µM; in assay [5], 7.25 µM; in assay [6], 4.91 µM. Further, the TGI in [7] is 7.15 µM; in assay [8] it was 6.04 µM; in assay [9] it was 5.65 µM; in assay [10], 5.04 µM.

For the origin of these results see PubChem BioAssay (NCI).
